≈ marks a conversion by molar mass, not a printed value. Ends that are not written are not given here. Peptide text beside a SMILES is read from it.
Key:
[1] = system: normal human liver cell line (L02 cell line); test: Cytotoxicity, MTS-PMS assay; type: cell-based; conditions: normal cultured human hepatocytes
Experimental: (§1) The cytotoxicity effect of synthetic Sparamosin26-54 was evaluated using normal mouse liver cell line (AML12 cell line) and normal human liver cell line (L02 cell line).
(§2) (1) AML12 or L02 cells were harvested, and the cell concentration was adjusted to 10^5 cells/mL.
(§3) (2) 100 μL of AML12 or L02 cells were seeded in 96-wells and incubated at 37° C.
(§4) (3) Cells were treated with different concentrations of Sparamosin26-54 (0, 0.1, 1, 10, 100 μg/mL) for 24 h at 37° C.
(§5) (4) Cells were treated with 20 μL of MTS-PMS reagent for another 2 hours, and then the absorbance value of each well was measured at 492 nm (see FIG. 4).

[2] = system: normal mouse liver cell line (AML12 cell line); test: Cytotoxicity, MTS-PMS assay; type: cell-based; conditions: normal cultured mouse hepatocytes
Experimental: as §1, §2, §3, §4, §5

[3] = system: Bacillus cereus
[4] = system: Staphylococcus aureus
[5] = system: Pseudomonas fluorescens
[6] = system: Escherichia coli
[7] = system: Cryptococcus neoformans
[8] = system: Pichia pastoris (GS115)
[9] = system: Corynebacterium glutamicum
[10] = system: Pseudomonas aeruginosa
[11] = system: Candida albicans
[12] = system: Aspergillus niger
[13] = system: Aspergillus flavus
[14] = system: Fusarium oxysporum
[15] = system: Aspergillus ochraceus
[16] = system: Aspergillus fumigatus
[17] = system: Neurospora crasa
[18] = system: various Gram-positive bacteria and Gram-negative bacteria
[19] = system: various molds

CSCC[C@H](NC(=O)[C@H](CS)NC(=O)[C@@H](NC(=O)[C@H](Cc1ccccc1)NC(=O)[C@H](CC(N)=O)NC(=O)[C@H](CC(C)C)NC(=O)[C@H](CCCNC(=N)N)NC(=O)[C@H](CS)NC(=O)[C@H](CCCNC(=N)N)NC(=O)CNC(=O)[C@H](CC(C)C)NC(=O)[C@H](Cc1ccccc1)NC(=O)[C@H](CC(=O)O)NC(=O)[C@H](CCCNC(=N)N)NC(=O)[C@H](CCCCN)NC(=O)[C@H](Cc1ccc(O)cc1)NC(=O)[C@H](CS)NC(=O)[C@H](CCCCN)NC(=O)[C@H](CCCCN)NC(=O)[C@H](CCCNC(=N)N)NC(=O)[C@H](CS)NC(=O)[C@@H]1CCCN1C(=O)[C@H](CC(N)=O)NC(=O)[C@@H]1CCCN1C(=O)CNC(=O)[C@H](CC(C)C)NC(=O)CN)[C@@H](C)O)C(=O)N[C@@H](Cc1ccccc1)C(=O)NCC(=O)O [Sparamosin26-54] (H-GLGPNPCRKKCYKRDFLGRCRLNFTCMFG-OH; N-terminus and C-terminus assumed)
cytotoxic effect [1]: no cytotoxic effect
cytotoxic effect [2]: no cytotoxic effect
MBC: minimum bactericidal concentration [3]: 24 µM (≈ 81.2 µg/mL)
MIC: minimum inhibitory concentration [3]: 6 to 12 µM
MBC: minimum bactericidal concentration [4]: 12 µM (≈ 40.6 µg/mL)
MIC: minimum inhibitory concentration [4]: 3 to 6 µM
MBC: minimum bactericidal concentration [5]: 6 µM (≈ 20.3 µg/mL)
MIC: minimum inhibitory concentration [5]: 3 to 6 µM
MBC: minimum bactericidal concentration [6]: 12 µM (≈ 40.6 µg/mL)
MIC: minimum inhibitory concentration [6]: 6 to 12 µM
MBC: minimum bactericidal concentration [7]: 12 µM (≈ 40.6 µg/mL)
MIC: minimum inhibitory concentration [7]: 1.5 to 3 µM
MBC: minimum bactericidal concentration [8]: 3 µM (≈ 10.1 µg/mL)
MIC: minimum inhibitory concentration [8]: 1.5 to 3 µM
MBC: minimum bactericidal concentration [9]: 6 µM (≈ 20.3 µg/mL)
MIC: minimum inhibitory concentration [9]: 1.5 to 3 µM
MBC: minimum bactericidal concentration [10]: 12 µM (≈ 40.6 µg/mL)
MIC: minimum inhibitory concentration [10]: 6 to 12 µM
MBC: minimum bactericidal concentration [11]: >48 µM
MIC: minimum inhibitory concentration [11]: >48 µM
MBC: minimum bactericidal concentration [12]: 24 µM (≈ 81.2 µg/mL)
MIC: minimum inhibitory concentration [12]: 6 to 12 µM
MBC: minimum bactericidal concentration [13]: >48 µM
MIC: minimum inhibitory concentration [13]: >48 µM
MBC: minimum bactericidal concentration [14]: 12 µM (≈ 40.6 µg/mL)
MBC: minimum bactericidal concentration [15]: 48 µM (≈ 162 µg/mL)
MIC: minimum inhibitory concentration [15]: 3 to 6 µM
MBC: minimum bactericidal concentration [16]: 24 µM (≈ 81.2 µg/mL)
MIC: minimum inhibitory concentration [16]: 12 to 24 µM
MBC: minimum bactericidal concentration [17]: 48 µM (≈ 162 µg/mL)
minimum inhibitory concentration (MIC) value [18]: 3 to 12 µM
MIC value [19]: 6 to 24 µM

APVPDPDSEQSNISEVLKVQHSIFSGLGPNPCRKKCYKRDFLGRCRLNFTCMFG (cysteines drawn unpaired) [Sparamosin]
MBC: minimum bactericidal concentration [3]: >48 µM
MIC: minimum inhibitory concentration [3]: 24 to 48 µM
MBC: minimum bactericidal concentration [4]: 48 µM
MIC: minimum inhibitory concentration [4]: 12 to 24 µM
MBC: minimum bactericidal concentration [5]: 24 µM
MIC: minimum inhibitory concentration [5]: 12 to 24 µM
MBC: minimum bactericidal concentration [6]: 24 µM
MIC: minimum inhibitory concentration [6]: 12 to 24 µM
MBC: minimum bactericidal concentration [7]: >48 µM
MIC: minimum inhibitory concentration [7]: >48 µM
MBC: minimum bactericidal concentration [8]: 24 µM
MIC: minimum inhibitory concentration [8]: 6 to 12 µM

Source: patent publication US11254717B2, “Antimicrobial peptide Sparamosin from Scylla paramamosain and application thereof” (priority 2018, dated 2022)
